From US20230256039A1, “COMPOSITIONS AND METHODS TO INCREASE PRODUCTION OF HYDROXYTYROSOL” (priority 2022, published 2023)

Columns and labels:
[1] = tested on: Lactobacillus pentosus strain OL79; settings: MIC cutoff values for Lactobacillus pentosus strain OL79; cited from earlier work
[2] = tested on: Lactobacillus pentosus strain OL79; experiment: Minimum inhibitory concentration (MIC) antibiotic susceptibility of strain OL79; type: cell-based; settings: MIC of antibiotic against strain OL79 versus EFSA cutoff

Question: With O=C(N[C@H](CO)[C@H](O)c1ccc([N+](=O)[O-])cc1)C(Cl)Cl [Chloramphenicol] as the molecule, how does the “EFSA Break Point” value [1] read?
Answer: 8 mg/L

Question: And the Susceptibility [2]?
Answer: sensitive

Question: Which results are given for CC1(C)S[C@@H]2[C@H](NC(=O)[C@H](N)c3ccccc3)C(=O)N2[C@H]1C(=O)O [Ampicillin]?
Answer: EFSA Break Point [1]: 2 mg/L; Susceptibility [2]: sensitive

Question: What does the source list for Gentamycin?
Answer: EFSA Break Point [1]: 16 mg/L; Susceptibility [2]: sensitive

Question: With CC[C@H]1OC(=O)[C@H](C)[C@@H](O[C@H]2C[C@@](C)(OC)[C@@H](O)[C@H](C)O2)[C@H](C)[C@@H](O[C@@H]2O[C@H](C)C[C@H](N(C)C)[C@H]2O)[C@](C)(O)C[C@@H](C)C(=O)[C@H](C)[C@@H](O)[C@]1(C)O [Erythromycin] as the molecule, how does the “EFSA Break Point” value [1] read?
Answer: 1 mg/L

Question: What about the Susceptibility [2] of the same molecule?
Answer: sensitive
